{
  "source": "patent US8552035B2",
  "about": "“Phenanthrenone compounds, compositions and methods” (Pfizer Inc., priority 2008, dated 2013)",
  "key": {"IFNγ": {"test_system": "IFNγ", "assay": "LPS-induced human whole blood, IFNγ release", "assay_type": "cell-based", "procedure": "Venous blood from human donors was collected as 10 ml aliquots in tubes containing sodium heparin (BD Vacutainer from Becton Dickinson and Company, Franklin Lakes, N.Y.). Blood was added to sterile polystyrene round bottom 96-well tissue culture plates (Corning Costar) at 180 Blood was placed in a humidified 37 C incubator with 5% CO2 while compounds were prepared (nearly 60 minutes).\nCompounds were prepared from 10 mM stock solutions in dimethylsulfoxide (DMSO, Sigma-Aldrich). Stock compound was diluted in DMSO to give appropriate starting concentration then diluted serially 1/3 in DMSO (i.e. 15 μl compound+30 μl DMSO), followed by diluting each serial dilution 1/167 into vehicle solution (2% DMSO in phosphate buffered saline (Dulbecco's Phosphate Buffered Saline without calcium chloride without magnesium chloride, Invitrogen Corporation, Carlsbad Calif.)). Compound or vehicle was added to blood in 10 μl aliquots as triplicates, omitting the outside wells to minimize possible edge effects. The final highest concentration of each compound in the assay ranged from 3 to 0.3 μM. Final DMSO concentration in the assay was 0.1%. The plate containing the samples was gently vortexed to mix and replaced in the incubator. LPS stock (E. coli serotype 0111:B4, Sigma-Aldrich), stored in aliquots of 100 μg/ml in RPMI at −20° C., was diluted […] in RPMI to make a working stock solution. After 60 minutes of incubation, 10 μl of the prepared LPS working stock was added to the blood to a final concentration of 100 ng/ml. Wells to be used as negative control received RPMI media with no LPS. The plate was again gently vortexed and the plates incubated overnight for 22 hours. Following incubation, the blood was centrifuged at 1500×g for 5 minutes and the plasma removed to either freeze at −20° C. or assay for cytokine release.\nIL-1β, IFNγ and TNFα protein levels were measured using Meso Scale assay kits (Meso Scale Discovery, Gaithersburg, Md., U.S.A.). Reagents were allowed to come to room temperature. Meso Scale plates were blocked with 150 μl of Meso Scale Block B diluent, gently shaking at room temperature for 60 minutes. Plates were washed 3× with wash buffer (PBS, Invitrogen Corporation, with 0.05% Tween-20, Sigma-Aldrich). Calibrators for standard curves were prepared in human plasma/serum assay diluent as a 1/5 serial dilution to achieve final concentrations ranging from 50000 pg/ml to 3.2 pg/ml. Samples were added at 10 to 20 μl/well and calibrators were added at 20 μl/well then incubated at room temperature with gentle shaking for 2 hours. Plates were again washed 3× with wash buffer. Detection antibody was diluted in human plasma/serum antibody diluent to 1 μg/ml and added to the plate at 20 μl/well. Plates were incubated as before for 2 hours and washed again. Read Buffer T (4×) was diluted 1:1 with mqH20 to 2× concentration and 150 μl added to each well. Plates were read on the SECTOR Imager 6000 (Meso Scale Discovery) to generate raw signal values.\nIndividual sample signal values were compared to positive and negative controls (vehicle treated blood with LPS and vehicle treated blood without LPS, respectively) to generate % inhibition. Triplicate values were averaged for each donor. The values for three or four donors were averaged and graphed using 4-parameter fit curves in the LabStats plug-in for the Microsoft Excel application."}, "LPS-induced TNFα": {"test_system": "LPS-induced TNFα", "assay": "28-day mouse side-effect model, LPS-induced serum TNFα suppression", "assay_type": "in vivo", "settings": "oral gavage 28 days, LPS challenge", "procedure": "(§1) 10-12 week old female Swiss Webster mice (Taconic, Germantown, N.Y., U.S.A.) weighing 27-29 grams are used in accordance with the guidelines of the Institutional Animal Care and Use Committee and in accordance with NIH guidelines on laboratory animal welfare. Mice are acclimated to the Pfizer animal facility for 3-7 days prior to being placed on study. Prednisolone and DAGR compounds are administered by oral gavage for a total of 28 days. Each treatment group generally contains 8-10 mice. To establish a dosing regimen for the studies, a pilot pharmacodynamic time course experiment is conducted to quantify TNFa repression after a single ED80 dose (determined from the acute LPS endotoxemia mouse model). […] DAGR compounds vary in their required frequency of doses.\n(§2) Body weights are measured on the first and last day of each experiment. Blood samples are obtained after ˜3 weeks of dosing for steady-state pharmacokinetic analysis. To assess compound effects on LPS-induced TNF-a, all mice receive an intraperitoneal injection of LPS (Salmonella Typhosa, Sigma, St. Louis, L-7895) 2.5 hr after the last dose on day 28. Mice are sacrificed 90 min. after LPS administration. Serum samples are assayed for osteocalcin and TNFa using the Linco multiplex assay (St. Charles, Mo.) and Luminex 100 (Austin, Tex.). Samples are diluted 1:20 and the assay is run according to manufacturer's instructions. An osteocalcin standard is purchased separately from Biomedical Technologies Incorporated (Stoughton, Mass.). Serum insulin is measured to assess compound effects on insulin resistance. Insulin was measured using the UltraSensitive Mouse EIA kit from Alpco Diagnostics (Salem, N.H.) following the manufacturer's protocol.\n(§3) ED50 and ED80 values are obtained for the various parameters using four-parameter logistic fits of data. For each experiment/dose group, outliers are detected by calculating the number of standard deviations each mouse's value was from the mean of their group and then dividing by the standard deviation of the group. The means and standard deviations used in this calculation omitted the value being examined so that, if it were an outlier, it would have no influence. If the value being examined is more than 2.5 standard deviations from the mean, it was not used in the rest of the calculations.\n(§4) Percent inhibition values are then calculated for each animal using the means of the vehicle and 10 mpk prednisone control groups. The individual mouse percent inhibition values are then fit to a four-parameter logistic model using the area under curve mean for each group. Since all four parameters are estimated and the lower plateau is not fixed at 0% and the upper plateau was not fixed at 100%, the ED50 and ED80 values are calculated by using an inverse calibration formula for a response equal to 50% or 80%. The designation “nd” means not determined."}, "serum insulin": {"test_system": "serum insulin", "assay": "28-day mouse side-effect model, serum insulin", "assay_type": "in vivo", "settings": "oral gavage 28 days", "procedure": "as §1, §2, §3, §4"}, "osteocalcin": {"test_system": "osteocalcin", "assay": "28-day mouse side-effect model, serum osteocalcin suppression", "assay_type": "in vivo", "settings": "oral gavage 28 days", "procedure": "as §1, §2, §3, §4"}},
  "data": [
    {"smiles": "Cc1ncccc1NC(=O)c1ccc2c(c1)C(=O)C[C@@H]1C[C@@](O)(c3ccccc3)[C@](C)(O)C[C@@]21Cc1ccccc1", "note": "[Example 1, (4bR,6R,7R,8aS)-4b-benzyl-6,7-dihydroxy-6-methyl-N-(2-methylpyridin-3-yl)-10-oxo-7-phenyl-4b,5,6,7,8,8a,9,10-octahydrophenanthrene-2-carboxamide]", "values": [
      {"measurement": "inhibition at 0.000137174 µM", "setting": "IFNγ; Homo sapiens, 0.137174 nM, mean of donors", "value": -3.93, "unit": "%"},
      {"measurement": "inhibition at 0.000411523 µM", "setting": "IFNγ; Homo sapiens, 0.411523 nM, mean of donors", "value": 15.6, "unit": "%"},
      {"measurement": "inhibition at 0.00123457 µM", "setting": "IFNγ; Homo sapiens, 1.234568 nM, mean of donors", "value": 18.4, "unit": "%"},
      {"measurement": "inhibition at 0.0037037 µM", "setting": "IFNγ; Homo sapiens, 3.703704 nM, mean of donors", "value": 26.9, "unit": "%"},
      {"measurement": "inhibition at 0.0111111 µM", "setting": "IFNγ; Homo sapiens, 11.11111 nM, mean of donors", "value": 51, "unit": "%"},
      {"measurement": "inhibition at 0.0333333 µM", "setting": "IFNγ; Homo sapiens, 33.33333 nM, mean of donors", "value": 66.2, "unit": "%"},
      {"measurement": "inhibition at 0.1 µM", "setting": "IFNγ; Homo sapiens, 100 nM, mean of donors", "value": 72.5, "unit": "%"},
      {"measurement": "inhibition at 0.3 µM", "setting": "IFNγ; Homo sapiens, 300 nM, mean of donors", "value": 72.9, "unit": "%"},
      {"measurement": "level of inhibition of IFN", "setting": "IFNγ; ex vivo LPS-stimulated human whole blood, extent of inhibition, concentration not given", "value": 73, "unit": "%"},
      {"measurement": "ED50", "setting": "LPS-induced TNFα; 672 h, read-out: TNFα Suppression (ED50 dose)", "value": 0.029, "unit": "mg/kg"},
      {"measurement": "TNFα Suppression (ED80 dose)", "setting": "LPS-induced TNFα", "value": 0.11},
      {"measurement": "ED50 at 28 days", "setting": "serum insulin; female, Swiss Webster, read-out: Insulin (ED50 dose)", "value": 1.28, "unit": "mg/kg"},
      {"measurement": "Insulin (ED80 dose)", "setting": "serum insulin", "value": 5.89},
      {"measurement": "ED50 at 28 days", "setting": "osteocalcin; female, Swiss Webster, read-out: Osteocalcin Suppression (ED50 dose)", "value": 0.081, "unit": "mg/kg"},
      {"measurement": "Osteocalcin Suppression (ED80 dose)", "setting": "osteocalcin", "value": 0.35}
    ]}
  ]
}
